Binding data for two compounds are collected here from publication PMC12603272 (2025).

In the assay the test system is AT-rich palindromic dodecanucleotide dsDNA (DNA, duplex) CGCAAATTTGCG
Kind of assay: photoluminescence titration. Conditions: dsDNA stock 10 mM Tris, 0.1 mM EDTA pH 8.0, 25 °C.

Regarding `CN1CCN(c2ccc3nc(-c4ccc5nc(-c6ccc(O)cc6)[nH]c5c4)[nH]c3c2)CC1`, under “dsDNA (0-8 µM) into 8 µM compound in D2O”, the binding result is “yes”.

In the case of `Cn1ccc(=Nc2ccc(NC(=O)c3ccc(N=c4ccn(C)c5ccc([N+](=O)[O-])cc45)cc3)cc2)cc1`, for the setting “dsDNA (0-10 µM) into 10 µM compound in D2O”, the binding entry is on record as “yes”.
